Measurements published in ChEMBL document CHEMBL1201862, “PubChem BioAssay data set” (2004).
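Method: 48-hour compound exposure of cells in 96-well plates, five concentrations, linear interpolation of endpoints. GI50 is the concentration that inhibits growth by half.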 Activity calls are given as the source filed them. Rule as the data show it: active = GI50 up to about 1.1 µM and inactive = higher.

Key:
Test in all cases: NCI anticancer screen, dose series, 48 h
[1] = test system: OVCAR-3
[2] = test system: LOX IMVI
[3] = test system: SF-539
[4] = test system: T47D
[5] = test system: SNB-19
[6] = test system: MDA-N
[7] = test system: HCT-15
[8] = test system: SK-MEL-2
[9] = test system: UO-31
[10] = test system: BT-549
[11] = test system: CAKI-1
[12] = test system: SR
[13] = test system: HT-29
[14] = test system: EKVX
[15] = test system: HOP-92
[16] = test system: MCF7
[17] = test system: Malme-3M
[18] = test system: RXF 393
[19] = test system: K562

Row | Compound | GI50 [1] | GI50 [2] | GI50 [3] | GI50 [4] | GI50 [5] | GI50 [6] | GI50 [7] [µM] | GI50 [8] | GI50 [9] | GI50 [10] | GI50 [11] | GI50 [12] | GI50 [13] | GI50 [14] | GI50 [15] | GI50 [16] | GI50 [17] | GI50 [18] | GI50 [19]
1 | Cc1ccc(S(=O)(=O)N2C3C=CC(C3)[C@@H]2C(Cl)(Cl)Cl)cc1 (stereo partly drawn) | 6.64 µM (inactive) | 18.5 µM (inactive) | 12.3 µM (inactive) | 10.7 µM (inactive) | 17.9 µM (inactive) | 35 µM (inactive) | 19.1 | 7.36 µM (inactive) | 15 µM (inactive) | 16.4 µM (inactive) | 13.3 µM (inactive) | 14.4 µM (inactive) | 11.8 µM (inactive) | 5.22 µM (inactive) | 10.1 µM (inactive) | 26.7 µM (inactive) | 18.9 µM (inactive) |  | 
2 | O=C(CC(=O)CC(O)(C(F)(F)F)C(F)(F)F)CC(O)(C(F)(F)F)C(F)(F)F | > 10 µM (inactive) | > 10 µM (inactive) | > 10 µM (inactive) | > 10 µM (inactive) | > 10 µM (inactive) | > 10 µM (inactive) | > 10 | > 10 µM (inactive) | > 10 µM (inactive) | > 10 µM (inactive) | > 10 µM (inactive) |  | 8.49 µM (inactive) | > 10 µM (inactive) | 5.75 µM (inactive) | > 10 µM (inactive) | > 10 µM (inactive) | > 10 µM (inactive) | > 10 µM (inactive)
3 | COC(=O)c1c(O)ccc2c1c1cc3ccccc3c(O)c1n2Cc1ccccc1Cl | 15.7 µM (inactive) |  | 17.3 µM (inactive) | 12.2 µM (inactive) | 59.4 µM (inactive) | 23.7 µM (inactive) | 19.2 | 17.7 µM (inactive) | 22.1 µM (inactive) | 32.8 µM (inactive) | 22.4 µM (inactive) | 25.4 µM (inactive) | 11.7 µM (inactive) | 25.8 µM (inactive) | 16.9 µM (inactive) | 30.3 µM (inactive) | 30.3 µM (inactive) | 23 µM (inactive) | 31.5 µM (inactive)
4 | CCOP(C)(=O)C(N)Cc1ccc(OC)c(OC)c1 (stereo not drawn) | > 100 µM (inactive) | > 100 µM (inactive) | > 100 µM (inactive) | > 100 µM (inactive) | > 100 µM (inactive) | > 100 µM (inactive) | > 100 |  | > 100 µM (inactive) | > 100 µM (inactive) | > 100 µM (inactive) | > 100 µM (inactive) | > 100 µM (inactive) | > 100 µM (inactive) | > 100 µM (inactive) | > 100 µM (inactive) | > 100 µM (inactive) | > 100 µM (inactive) | > 100 µM (inactive)
5 | CCOC(=O)c1ccc(-c2cc(C)[nH]n2)[nH]1 | > 100 µM (inactive) | > 100 µM (inactive) | > 100 µM (inactive) | 85.5 µM (inactive) | > 100 µM (inactive) | > 100 µM (inactive) | > 100 | > 100 µM (inactive) | > 100 µM (inactive) | > 100 µM (inactive) | > 100 µM (inactive) |  | > 100 µM (inactive) | 54.1 µM (inactive) | > 100 µM (inactive) |  | > 100 µM (inactive) | > 100 µM (inactive) | 
6 | O=Nc1c(-c2cccc([N+](=O)[O-])c2)nc2cnccn12 | 16.8 µM (inactive) | 15.2 µM (inactive) | 20.3 µM (inactive) | 15.1 µM (inactive) | > 100 µM (inactive) |  | 14.5 | 27.9 µM (inactive) | 11.7 µM (inactive) | 27.9 µM (inactive) | 17 µM (inactive) | 2.2 µM (inactive) | 14.3 µM (inactive) | 34 µM (inactive) | 20 µM (inactive) | 36 µM (inactive) | 22.2 µM (inactive) | 23 µM (inactive) | 18.3 µM (inactive)
7 | C=CC(C)(C)c1c(OC)oc2ccc(OC)c(C)c2c1=O | > 100 µM (inactive) | > 100 µM (inactive) | > 100 µM (inactive) | 56.4 µM (inactive) | > 100 µM (inactive) | > 100 µM (inactive) | 98.2 | > 100 µM (inactive) | > 100 µM (inactive) | 90.2 µM (inactive) | > 100 µM (inactive) | 84.1 µM (inactive) | 96.4 µM (inactive) | > 100 µM (inactive) |  | > 100 µM (inactive) | > 100 µM (inactive) |  | 78.2 µM (inactive)
8 | COc1ccc(C(=O)N2CCN(c3ccc4[nH]c(=O)oc4c3)CC2)cc1 | > 100 µM (inactive) | > 100 µM (inactive) | > 100 µM (inactive) | > 100 µM (inactive) | > 100 µM (inactive) | > 100 µM (inactive) | > 100 | > 100 µM (inactive) | > 100 µM (inactive) | > 100 µM (inactive) |  | 92.5 µM (inactive) | > 100 µM (inactive) | 78.7 µM (inactive) | > 100 µM (inactive) | > 100 µM (inactive) | 48.5 µM (inactive) |  | 
